Values after ≈ are worked out from the molar mass of the structure shown.

Common to all, as to assay type: cell-based
The subject of experiment [1] is visna virus (strain K184). Put plainly: CPE inhibition test (established monolayer), visna virus. The note with it: Visna-maedi virus; K184 strain in SCP cells; minimum concentration giving complete protection of the cell monolayers. How it is done: 4. CPE Inhibition Test (Established Monolayer) for Lentiviruses
3×10^4 sheep choroid plexus (SCP) cells were plated into individual wells of a 96 well microtitre plate in 100 μl of Eagle's MEM with Hanks salts containing 10% heat inactivated foetal calf serum (FCS). When monolayers had become established (after 1 or 2 days growth) they were washed with 200 μl of maintenance medium (Eagle's MEM with Hanks salts containing 0.5% FCS) and infected with 100μl of visna virus (strain K184) in maintenance medium (30 TCID50/ ml). Test samples were diluted with maintenance medium in further 96 well microtitre plates over the range 200-0.09 μg/ml by 3-fold dilution steps. 100 μl of the diluted samples was then transferred directly onto virus-infected monolayers (final concentration range therefore 100-0.045 μg/ml) and incubated at 37° C. in a humidified, 5% CO2 incubation until virus-induced CPE was maximal in the untreated virus-infected controls (usually 12-14 days). The plates were fixed with formal saline and stained with crystal violet.
Virus-induced CPE was then scored microscopically and the minimum concentration of sample giving complete protection of the cell monolayers (MIC) determined.

Experiment [2] deals with herpes simplex virus 1, strain SC16. Put plainly: CPE inhibition test (replicating cells), herpes simplex virus 1 (strain SC16). The note with it: Human alphaherpesvirus 1, SC16, MRC5, SC16 strain in MRC-5 cells; each figure is a single test; read-out: IC50, Herpes Simplex Type 1 virus. From the text:
3. CPE Inhibition Test (Replicating Cells) for Herpes Simplex Virus 1 MRC-5 cells (in Eagles MEM containing 5% newborn calf serum) were infected in suspension with herpes simplex virus 1, strain SC16 (approximately one infectious particle per 10 cells). One hundred microliters of the infected cell suspension (containing approximately 2× 10^4 cells) were dispensed into each well of a 96 well microtitre plate containing an equal volume of the test drug in medium (Eagles MEM containing 5% newborn calf serum) at concentrations ranging from 200 to 0.09 μg/ml (3-fold dilution steps); final concentrations therefore ranged between 100 to 0.045 μg/ml. The plates were then incubated at 37° C. in a humidified atmosphere of 5% CO2 for 3 days when the virus-induced cytopathic effect (CPE) in the control wells reached 100%. The plates were fixed in formal saline and stained with carbol fuchsin. […] Plates of uninfected cells were set up in parallel to determine the minimum concentration of test compound which caused cytotoxicity.

The subject of experiment [3] is herpes simplex virus 2 (HSV-2; strain MS). Briefly: Plaque reduction test, herpes simplex virus 2 (strain MS). The note with it: Human alphaherpesvirus 2, MRC5, MS strain in MRC-5 cells; each figure is a single test; read-out: IC50, Herpes Simplex Type 2 virus. On the procedure: Plaque Reduction Test for Heroes Simplex viruses 1 and 2. Cells (vero or MRC-5) were grown to confluence in 24 well multi-dishes (well diameter 1.5 cm). The drained cell monolayers were each infected with approximately 50 infectious particles of herpes simplex virus 1 (HSV-1; strain HFEM) or herpes simplex virus 2 (HSV-2; strain MS) in 100 μof phosphate-bufferedsaline. The virus was adsorbed for 1 hour at room temperature. After adsorption, residual inoculum was removed from each well and replaced with 0.5ml of Eagle's MEM containing 5% newborn calf serum and 0.9% agarose (A37). Once the agarose had set, dilutions of the test compound, which had been prepared in Eagle's MEM (containing 5% newborn calf serum), were added, each well receiving 0.5ml of liquid overlay. The test compound was diluted to give the following series of […] concentrations: 200, 60, 20, 6 . . . 0.06 μg/ml; final concentrations in the assay ranged, therefore, between 100 μg/ml and 0.03 μg/ml. […]
Cultures from 1 and 2 were fixed in formal saline, the agarose overlays were carefully washed off, and then the cell monolayers were stained with carbol fuchsin. […] In addition, the monolayers were examined for evidence of drug-induced cytotoxicity; the minimum concentration at which cytotoxicity occurs was recorded.
In general terms: Plaques are areas of infected cells; plaque reduction assays count them against a control.

`Nc1nc2c(ncn2OCC(O)CO)c(=O)[nH]1` (stereo not shown) [Example 6, 9-(2,3-Dihydroxyprop-1-oxy)guanine] gave an MIC in experiment [1] of 10 µg/mL (≈ 41.5 µM).
For orientation: IC50 means the concentration that inhibits the measured activity by half. As for `Nc1nc2c(ncn2OC[C@@H](O)CO)c(=O)[nH]1` [Example 31, (S)-9-(2,3-Dihydroxyprop-1-oxy)guanine], the MIC in experiment [1] is 10 µg/mL (≈ 41.5 µM). Further, the results for the IC50 in experiment [2] and in experiment [3] were 0.7 µg/mL (≈ 2.9 µM) and 0.06 µg/mL (≈ 0.249 µM), respectively.
Take `Nc1nc2c(ncn2OC(CO)CCO)c(=O)[nH]1` (stereo not shown) [Example 8, 9-(1,4-Dihydroxybut-2-oxy)guanine]: the MIC in experiment [1] was determined as 30 µg/mL (≈ 118 µM).
On the same count and under the same terms, to `Nc1nc2c(ncn2OCC(CO)CO)c(=O)[nH]1` [Example 5, 9-(3-Hydroxy-2-hydroxymethylprop-1-oxy)guanine] belongs 0.1 µg/mL (≈ 0.392 µM); to `Nc1nc2c(ncn2OCCCO)c(=O)[nH]1` [Example 1, 9-(3-Hydroxyprop-1-oxy)guanine], 3 µg/mL (≈ 13.3 µM).

Values taken from patent US4965270A, “Purine derivatives” (Beecham Group p.l.c., priority 1989, dated 1990).
